Results: paper PMC9150124, “Design of a Potent, Selective, and Brain-Penetrant Inhibitor of Wnt-Deactivating Enzyme Notum by Optimization of a Crystallographic Fragment Hit” (Journal of Medicinal Chemistry, 2022)
Like-named read-outs stand apart in the source and are kept apart here.

How the values were obtained:
[1] = target: kinase named in conditions (Homo sapiens, UniProt O00141); experiment: SelectScreen kinase profiling, SSBK ZLyte SP Technology; format: biochemical; conditions: SGK (SGK1), 10 μM
Chain of kinase named in conditions (Homo sapiens, UniProt O00141) (O00141 whole entry): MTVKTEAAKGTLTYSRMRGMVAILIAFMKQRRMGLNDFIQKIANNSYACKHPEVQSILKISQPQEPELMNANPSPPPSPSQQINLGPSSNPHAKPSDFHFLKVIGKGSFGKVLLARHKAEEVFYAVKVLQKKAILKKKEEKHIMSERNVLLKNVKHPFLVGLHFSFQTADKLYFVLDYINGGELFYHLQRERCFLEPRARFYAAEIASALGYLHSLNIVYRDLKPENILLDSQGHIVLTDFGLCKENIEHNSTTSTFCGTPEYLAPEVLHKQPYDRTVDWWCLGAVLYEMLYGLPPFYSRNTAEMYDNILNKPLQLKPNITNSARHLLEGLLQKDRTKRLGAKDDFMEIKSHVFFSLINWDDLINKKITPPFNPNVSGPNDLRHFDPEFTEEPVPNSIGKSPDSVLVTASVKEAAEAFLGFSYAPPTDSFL
Method: (§1) Kinase selectivity screening was performed by Thermo Fisher Scientific (Paisley, U.K.) in their SelectScreen Biochemical Kinase Profiling Service. Assay information and data are presented in the Supporting Information.
(§2) Kinase selectivity screening was performed by ThermoFisher Scientific (Paisley, U.K.) in their SelectScreenTM
(§3) Biochemical Kinase Profiling service .

[2] = target: kinase named in conditions (Homo sapiens, UniProt O43781); experiment: as above; format: biochemical; conditions: DYRK3, 10 μM
Method: as §1, §2, §3

[3] = target: kinase named in conditions (Homo sapiens, UniProt P07949, V804E); experiment: as above; format: biochemical; conditions: RET V804E, 10 μM
Method: as §1, §2, §3

[4] = target: kinase named in conditions (Homo sapiens, UniProt P10721); experiment: as above; format: biochemical; conditions: KIT, 10 μM
Method: as §1, §2, §3

[5] = target: kinase named in conditions (Homo sapiens, UniProt P14616); experiment: as above; format: biochemical; conditions: INSRR (IRR), 10 μM
Method: as §1, §2, §3

[6] = target: kinase named in conditions (Homo sapiens, UniProt Q15349); experiment: as above; format: biochemical; conditions: RPS6KA2 (RSK3), 10 μM
Method: as §1, §2, §3

[7] = target: kinase named in conditions (Homo sapiens, UniProt Q16620); experiment: as above; format: biochemical; conditions: NTRK2 (TRKB), 10 μM
Method: as §1, §2, §3

[8] = target: kinase named in conditions (Homo sapiens, UniProt Q8IW41); experiment: as above; format: biochemical; conditions: MAPKAPK5 (PRAK), 10 μM
Method: as §1, §2, §3

[9] = target: kinase named in conditions (Homo sapiens, UniProt Q8N568); experiment: as above; format: biochemical; conditions: DCAMKL2 (DCK2), 10 μM
Method: as §1, §2, §3

[10] = target: kinase named in conditions (Homo sapiens, UniProt Q8N752); experiment: as above; format: biochemical; conditions: CSNK1A1L, 10 μM
Chain of kinase named in conditions (Homo sapiens, UniProt Q8N752) (Q8N752 whole entry): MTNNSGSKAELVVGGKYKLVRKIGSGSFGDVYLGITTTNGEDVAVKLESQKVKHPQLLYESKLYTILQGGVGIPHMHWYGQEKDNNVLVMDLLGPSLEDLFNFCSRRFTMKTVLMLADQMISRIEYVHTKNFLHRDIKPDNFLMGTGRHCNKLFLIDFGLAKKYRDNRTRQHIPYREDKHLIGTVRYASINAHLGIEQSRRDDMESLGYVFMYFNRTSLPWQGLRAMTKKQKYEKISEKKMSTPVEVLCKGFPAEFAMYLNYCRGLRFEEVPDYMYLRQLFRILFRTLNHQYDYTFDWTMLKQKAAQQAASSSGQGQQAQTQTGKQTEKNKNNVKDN
Method: as §1, §2, §3

[11] = target: kinase named in conditions (Homo sapiens, UniProt Q9HCP0); experiment: as above; format: biochemical; conditions: CSNK1G1 (CK1 gamma 1), 10 μM
Method: as §1, §2, §3

[12] = target: kinase named in conditions (Homo sapiens, UniProt Q9NYY3); experiment: as above; format: biochemical; conditions: PLK2, 10 μM
Chain of kinase named in conditions (Homo sapiens, UniProt Q9NYY3) (Q9NYY3 whole entry): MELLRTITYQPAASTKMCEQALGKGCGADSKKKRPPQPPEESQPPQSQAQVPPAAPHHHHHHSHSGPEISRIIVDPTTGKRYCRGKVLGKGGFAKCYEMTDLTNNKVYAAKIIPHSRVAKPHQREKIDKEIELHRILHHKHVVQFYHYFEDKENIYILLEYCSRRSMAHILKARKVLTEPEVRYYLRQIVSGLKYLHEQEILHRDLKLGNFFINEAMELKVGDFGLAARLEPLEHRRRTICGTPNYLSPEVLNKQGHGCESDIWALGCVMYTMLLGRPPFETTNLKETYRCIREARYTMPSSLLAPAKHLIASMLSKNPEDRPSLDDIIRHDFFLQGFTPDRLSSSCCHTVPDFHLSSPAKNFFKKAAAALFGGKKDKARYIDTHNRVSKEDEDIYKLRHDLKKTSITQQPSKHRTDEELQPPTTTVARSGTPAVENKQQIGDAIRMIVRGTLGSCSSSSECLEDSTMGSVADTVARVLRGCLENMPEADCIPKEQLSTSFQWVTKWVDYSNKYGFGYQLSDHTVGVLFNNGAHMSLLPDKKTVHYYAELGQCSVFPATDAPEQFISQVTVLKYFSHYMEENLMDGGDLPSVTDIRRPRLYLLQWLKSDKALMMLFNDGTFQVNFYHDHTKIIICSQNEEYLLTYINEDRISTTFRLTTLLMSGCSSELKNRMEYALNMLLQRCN
Method: as §1, §2, §3

[13] = target: kinase named in conditions (Homo sapiens, UniProt O00329); experiment: SelectScreen kinase profiling, SSBK Adapta SP Technology; format: biochemical; conditions: PIK3CD/PIK3R1 (p110 delta/p85 alpha), 10 μM
[14] = target: kinase named in conditions (Homo sapiens, UniProt O00443); experiment: as above; format: biochemical; conditions: PIK3C2A (PI3K-C2 alpha), 10 μM
[15] = target: kinase named in conditions (Homo sapiens, UniProt O15111); experiment: as above; format: biochemical; conditions: CHUK (IKK alpha), 10 μM
[16] = target: kinase named in conditions (Homo sapiens, UniProt O60285); experiment: as above; format: biochemical; conditions: NUAK1 (ARK5), 10 μM
[17] = target: kinase named in conditions (Homo sapiens, UniProt O75747); experiment: as above; format: biochemical; conditions: PIK3C2G (PI3K-C2 gamma), 10 μM
[18] = target: kinase named in conditions (Homo sapiens, UniProt P11802); experiment: as above; format: biochemical
[19] = target: kinase named in conditions (Homo sapiens, UniProt P42336, E542K); experiment: as above; format: biochemical; conditions: PIK3CA E542K/PIK3R1 (p110 alpha E542K/p85 alpha), 10 μM
[20] = target: kinase named in conditions (Homo sapiens, UniProt P48426); experiment: as above; format: biochemical; conditions: PIP4K2A, 10 μM
[21] = target: kinase named in conditions (Homo sapiens, UniProt P48736); experiment: as above; format: biochemical; conditions: PIK3CG (p110 gamma), 10 μM
[22] = target: kinase named in conditions (Homo sapiens, UniProt P50613); experiment: as above; format: biochemical; conditions: CDK7/cyclin H/MNAT1, 10 μM
[23] = target: kinase named in conditions (Homo sapiens, UniProt Q14012); experiment: as above; format: biochemical; conditions: CAMK1 (CaMK1), 10 μM
[24] = target: kinase named in conditions (Homo sapiens, UniProt Q5S007, G2019S); experiment: as above; format: biochemical; conditions: LRRK2 G2019S FL, 10 μM
Chain of kinase named in conditions (Homo sapiens, UniProt Q5S007, G2019S) (Q5S007 whole entry G2019S): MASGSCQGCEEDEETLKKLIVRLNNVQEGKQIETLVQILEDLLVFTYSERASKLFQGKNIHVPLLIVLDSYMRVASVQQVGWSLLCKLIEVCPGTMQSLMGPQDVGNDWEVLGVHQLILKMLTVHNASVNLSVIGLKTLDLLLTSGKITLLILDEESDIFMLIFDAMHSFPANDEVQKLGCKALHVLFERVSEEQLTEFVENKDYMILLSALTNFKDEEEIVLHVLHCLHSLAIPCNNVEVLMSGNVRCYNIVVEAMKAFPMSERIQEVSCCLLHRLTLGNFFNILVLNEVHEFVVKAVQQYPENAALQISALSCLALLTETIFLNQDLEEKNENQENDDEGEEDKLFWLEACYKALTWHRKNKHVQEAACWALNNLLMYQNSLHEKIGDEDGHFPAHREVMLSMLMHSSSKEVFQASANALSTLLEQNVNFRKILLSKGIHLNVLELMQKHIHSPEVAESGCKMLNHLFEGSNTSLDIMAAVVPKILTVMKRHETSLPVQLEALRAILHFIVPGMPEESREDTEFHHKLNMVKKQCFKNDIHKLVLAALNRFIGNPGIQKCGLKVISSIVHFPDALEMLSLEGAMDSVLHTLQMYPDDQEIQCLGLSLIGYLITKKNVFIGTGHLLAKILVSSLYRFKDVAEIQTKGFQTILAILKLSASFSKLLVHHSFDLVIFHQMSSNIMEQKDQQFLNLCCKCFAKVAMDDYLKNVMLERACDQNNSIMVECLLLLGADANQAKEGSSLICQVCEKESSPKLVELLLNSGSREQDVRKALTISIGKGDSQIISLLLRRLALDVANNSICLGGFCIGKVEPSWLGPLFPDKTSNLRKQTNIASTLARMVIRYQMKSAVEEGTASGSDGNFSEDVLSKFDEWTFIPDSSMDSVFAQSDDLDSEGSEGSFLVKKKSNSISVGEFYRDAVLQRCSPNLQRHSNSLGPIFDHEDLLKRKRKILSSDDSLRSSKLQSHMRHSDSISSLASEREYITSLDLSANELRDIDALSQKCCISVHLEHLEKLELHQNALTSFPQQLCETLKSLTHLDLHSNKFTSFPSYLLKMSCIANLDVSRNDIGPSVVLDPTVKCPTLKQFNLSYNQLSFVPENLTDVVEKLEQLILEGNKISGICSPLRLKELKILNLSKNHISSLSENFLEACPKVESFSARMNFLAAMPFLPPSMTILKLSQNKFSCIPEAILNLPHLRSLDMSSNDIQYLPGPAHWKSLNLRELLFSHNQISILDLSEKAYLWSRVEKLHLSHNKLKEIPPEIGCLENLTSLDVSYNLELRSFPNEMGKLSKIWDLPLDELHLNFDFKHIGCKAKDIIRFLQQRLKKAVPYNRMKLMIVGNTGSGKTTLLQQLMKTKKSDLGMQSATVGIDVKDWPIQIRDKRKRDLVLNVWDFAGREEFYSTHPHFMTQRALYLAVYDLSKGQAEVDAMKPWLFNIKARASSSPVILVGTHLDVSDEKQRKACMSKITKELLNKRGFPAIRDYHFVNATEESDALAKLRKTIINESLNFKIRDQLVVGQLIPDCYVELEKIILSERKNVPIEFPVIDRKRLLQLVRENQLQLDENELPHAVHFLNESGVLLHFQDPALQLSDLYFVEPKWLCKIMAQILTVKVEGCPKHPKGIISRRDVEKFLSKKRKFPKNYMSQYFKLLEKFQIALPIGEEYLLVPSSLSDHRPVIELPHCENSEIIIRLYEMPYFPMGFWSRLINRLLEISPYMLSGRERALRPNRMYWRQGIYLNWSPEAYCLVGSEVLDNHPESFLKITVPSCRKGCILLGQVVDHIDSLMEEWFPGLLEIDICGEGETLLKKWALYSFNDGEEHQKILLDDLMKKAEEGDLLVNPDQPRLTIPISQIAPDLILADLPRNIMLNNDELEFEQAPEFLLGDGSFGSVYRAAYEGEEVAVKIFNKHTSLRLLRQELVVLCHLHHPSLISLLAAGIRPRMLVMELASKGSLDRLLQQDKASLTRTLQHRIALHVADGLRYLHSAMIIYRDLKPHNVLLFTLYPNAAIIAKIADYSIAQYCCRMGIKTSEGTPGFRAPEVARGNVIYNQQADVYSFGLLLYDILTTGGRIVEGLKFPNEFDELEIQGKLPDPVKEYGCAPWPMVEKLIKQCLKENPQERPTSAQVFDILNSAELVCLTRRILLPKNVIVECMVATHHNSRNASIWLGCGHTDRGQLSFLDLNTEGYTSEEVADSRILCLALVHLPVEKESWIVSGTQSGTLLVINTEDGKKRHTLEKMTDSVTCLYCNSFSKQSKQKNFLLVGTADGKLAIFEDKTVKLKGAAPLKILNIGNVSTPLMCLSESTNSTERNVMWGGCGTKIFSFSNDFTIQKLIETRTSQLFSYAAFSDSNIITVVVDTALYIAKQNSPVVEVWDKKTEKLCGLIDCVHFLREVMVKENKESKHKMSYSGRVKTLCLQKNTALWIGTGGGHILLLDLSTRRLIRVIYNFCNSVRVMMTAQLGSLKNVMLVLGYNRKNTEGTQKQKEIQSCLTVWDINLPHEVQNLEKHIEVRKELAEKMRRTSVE

[25] = target: kinase named in conditions (Homo sapiens, UniProt Q8NEB9); experiment: as above; format: biochemical; conditions: PIK3C3 (hVPS34), 10 μM
[26] = target: kinase named in conditions (Homo sapiens, UniProt Q8TCG2); experiment: as above; format: biochemical; conditions: PI4K2B (PI4K2 beta), 10 μM
[27] = target: kinase named in conditions (Homo sapiens, UniProt Q8TF76); experiment: as above; format: biochemical; conditions: GSG2 (Haspin), 10 μM
[28] = target: kinase named in conditions (Homo sapiens, UniProt Q9UBF8); experiment: as above; format: biochemical; conditions: PI4KB (PI4K beta), 10 μM
[29] = Stability in human liver microsomes; format: in vitro ADME; conditions: for half-life: human, liver microsomes, read-out: HLM Stability t1/2
CYP2C19 = CYP2C19 (Homo sapiens, UniProt P33261); experiment: CYP450 inhibition in HLM
Chain of CYP2C19 (P33261 whole entry): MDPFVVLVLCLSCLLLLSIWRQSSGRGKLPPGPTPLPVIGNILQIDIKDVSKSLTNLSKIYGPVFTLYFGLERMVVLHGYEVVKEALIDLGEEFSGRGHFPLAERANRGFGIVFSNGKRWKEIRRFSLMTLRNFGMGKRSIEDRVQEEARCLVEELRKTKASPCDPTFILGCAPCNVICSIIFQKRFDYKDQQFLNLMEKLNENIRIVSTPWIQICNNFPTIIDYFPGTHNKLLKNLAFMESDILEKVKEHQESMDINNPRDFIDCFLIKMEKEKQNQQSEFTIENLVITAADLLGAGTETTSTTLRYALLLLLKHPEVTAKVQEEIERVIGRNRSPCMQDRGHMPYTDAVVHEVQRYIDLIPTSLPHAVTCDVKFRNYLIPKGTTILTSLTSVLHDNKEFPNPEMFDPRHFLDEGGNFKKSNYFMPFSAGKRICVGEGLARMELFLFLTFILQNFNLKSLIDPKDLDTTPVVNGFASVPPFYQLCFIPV

CYP2D6 = CYP2D6 (Homo sapiens, UniProt P10635); experiment: CYP450 inhibition in HLM
Chain of CYP2D6 (P10635 whole entry): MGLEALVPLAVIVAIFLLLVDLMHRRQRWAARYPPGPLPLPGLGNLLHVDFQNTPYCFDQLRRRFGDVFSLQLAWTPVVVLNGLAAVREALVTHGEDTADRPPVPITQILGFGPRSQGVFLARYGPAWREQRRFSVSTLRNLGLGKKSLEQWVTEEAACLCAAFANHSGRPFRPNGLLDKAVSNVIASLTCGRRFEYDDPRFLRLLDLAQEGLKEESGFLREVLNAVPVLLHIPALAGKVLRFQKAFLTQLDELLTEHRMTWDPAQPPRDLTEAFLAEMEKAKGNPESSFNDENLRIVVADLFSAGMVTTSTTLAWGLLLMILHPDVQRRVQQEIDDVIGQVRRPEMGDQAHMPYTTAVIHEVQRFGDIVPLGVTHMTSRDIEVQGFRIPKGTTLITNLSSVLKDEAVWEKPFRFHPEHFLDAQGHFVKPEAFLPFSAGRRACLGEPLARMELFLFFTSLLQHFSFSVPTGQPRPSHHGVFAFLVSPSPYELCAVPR

In the case of `FC(F)(F)c1c(Cl)ccc(-n2ccnn2)c1Cl` [8l, 1-(2,4-Dichloro-3-(trifluoromethyl)phenyl)-1H-1,2,3-triazole], the inhibition at 10 µM [1] is reported as 5%, the inhibition at 10 µM [2] is reported as 1% and the inhibition at 10 µM [3] is reported as 4%. It also gave an inhibition at 10 µM [4] of -7%, an inhibition at 10 µM [5] of 11% and an inhibition at 10 µM [6] of 5%. For the same compound, the inhibition at 10 µM [7] was 5%, the inhibition at 10 µM [8] was 6% and the inhibition at 10 µM [9] was 1%. The inhibition at 10 µM [10] was -2%, the inhibition at 10 µM [11] was 4% and the inhibition at 10 µM [12] was 15%. For the same compound, the inhibition at 10 µM [13] was -25%, the inhibition at 10 µM [14] was -10% and the inhibition at 10 µM [15] was 4%. It also gave an inhibition at 10 µM [16] of -3%, an inhibition at 10 µM [17] of 11% and an inhibition at 10 µM ([18]; CDK4/cyclin D1, 10 μM) of 6%. For the same compound, the inhibition at 10 µM ([18]; CDK4/cyclin D3, 10 μM) was 4%, the inhibition at 10 µM [19] was 6% and the inhibition at 10 µM [20] was -1%. For the same compound, the inhibition at 10 µM [21] was -15%, the inhibition at 10 µM [22] was -3% and the inhibition at 10 µM [23] was 11%. For the same compound, the inhibition at 10 µM [24] was 15%, the inhibition at 10 µM [25] was -5% and the inhibition at 10 µM [26] was 16%. For the same compound, the inhibition at 10 µM [27] was 10%, the inhibition at 10 µM [28] was 1% and the “HLM Cli” value [29] was 1.5 μL/min/mg protein. The “Liver microsome stability Cli, HLM” value ([29]; additional study (Table 5)) was < 9.6 μL/min/mg protein, the half-life ([29]; Table S4) was 2 h and the half-life ([29]; Table S8) was > 2.42 h. It also gave an IC50 (CYP2C19) of 7.27 µM, an IC50 (CYP2C19; read-out: CYP inhibition IC50, 2C19, HLM) of 8.1 µM and an IC50 (CYP2C19; read-out: IC50 CYP2C19/S-Mephenytoin, (+)NADPH pre-incubation) of 8.07 µM. The IC50 (CYP2D6; read-out: CYP inhibition IC50, 2D6, HLM) was > 50 µM, the IC50 (CYP2D6; read-out: IC50 CYP2D6/Dextromethorphan, (+)NADPH pre-incubation) was > 50 µM and the IC50 (CYP2D6; read-out: IC50 CYP2D6/Dextromethorphan, (-)NADPH pre-incubation) was > 50 µM.
